{
  "source": "patent US9586931B2",
  "about": "(Merck Sharp & Dohme Corp., priority 2012, dated 2017)",
  "data": [
    {"molecular_target": "T1, recombinant human GST-Syk (Homo sapiens, UniProt P43405)", "T1 construct": "purchased Carna Biosciences 08-176", "assay": "Homogeneous Time-Resolved Fluorescence (HTRF) assay for the recombinant human Syk enzyme", "type": "biochemical", "conditions": "recombinant human GST-Syk 5 pM, ATP 25 μM, 10-dose titration 10 μM to 0.508 nM; read-out: rhSYK Activity IC50", "procedure,_shortened": "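Detection used time-resolved fluorescence 30 min after adding a quench mix (40 mM EDTA, 15 mM Tris pH 7.5, 0.01% Tween 20) containing 2 nM Europium anti-pTyr antibody and 70 nM streptavidin-APC. This followed 45 min of room-temperature peptide phosphorylation by recombinant GST-tagged human Syk.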", "units": {"IC50": "nM"}, "values": [
      {"smiles": "Cc1cc(Nc2cc(C(F)(F)F)ccn2)nc(-c2cn(Cc3[nH]cnc3C)nn2)c1", "note": "[Example 5.106, 4-methyl-6-{1-[(4-methyl-1H-imidazol-5-yl)methyl]-1H-1,2,3-triazol-4-yl}-N-[4-(trifluoromethyl)pyridin-2-yl]pyridin-2-amine]", "IC50": 1.6},
      {"smiles": "Cc1cc(Nc2cc(C(F)(F)F)ccn2)nc(-c2cn(CS(N)(=O)=O)nn2)c1", "note": "[Example 5.107, 1-[4-(4-methyl-6-{[4-(trifluoromethyl)pyridin-2-yl]amino}pyridin-2-yl)-1H-1,2,3-triazol-1-yl]methanesulfonamide]", "IC50": 5.1},
      {"smiles": "Cc1cc(Nc2cc(C(F)(F)F)ccn2)nc(-c2cn(Cc3c[nH]cn3)nn2)c1", "note": "[Example 5.108, 6-[1-(1H-imidazol-4-ylmethyl)-1H-1,2,3-triazol-4-yl]-4-methyl-N-[4-(trifluoromethyl)pyridin-2-yl]pyridin-2-amine]", "IC50": 2.5},
      {"smiles": "Cc1cc(Nc2cc(C(F)(F)F)ccn2)nc(-c2cn(Cc3nnn[nH]3)nn2)c1", "note": "[Example 5.109, 4-methyl-6-[1-(1H-tetrazol-5-ylmethyl)-1H-1,2,3-triazol-4-yl]-N-[4-(trifluoromethyl)pyridin-2-yl]pyridin-2-amine]", "IC50": 12.6},
      {"smiles": "Cc1cc(Nc2cc(C(F)(F)F)ccn2)nc(-c2cn(CCOC(N)=O)nn2)c1", "note": "[Example 5.110, 2-[4-(4-methyl-6-{[4-(trifluoromethyl)pyridin-2-yl]amino}pyridin-2-yl)-1H-1,2,3-triazol-1-yl]ethyl carbamate]", "IC50": 6.2},
      {"smiles": "Cc1cc(Nc2cc(C(F)(F)F)ccn2)nc(-c2cn(Cc3cc[nH]n3)nn2)c1", "note": "[Example 5.111, 4-methyl-6-[1-(1H-pyrazol-3-ylmethyl)-1H-1,2,3-triazol-4-yl]-N-[4-(trifluoromethyl)pyridin-2-yl]pyridin-2-amine]", "IC50": 2.2},
      {"smiles": "Cc1cc(Nc2cc(C(F)(F)F)ccn2)nc(-c2cn(CC3(N)CC3)nn2)c1", "note": "[Example 5.112, 6-{1-[(1-aminocyclopropyl)methyl]-1H-1,2,3-triazol-4-yl}-4-methyl-N-[4-(trifluoromethyl)pyridin-2-yl]pyridin-2-amine]", "IC50": 17},
      {"smiles": "Cc1cc(Nc2cc(C(F)(F)F)ccn2)nc(-c2cn(-c3ncccc3Cl)nn2)c1", "note": "[Example 6.1, 6-(1-(3-Chloropyridin-2-yl)-1H-1,2,3-triazol-4-yl)-4-methyl-N-(4-(trifluoromethyl)pyridin-2-yl)pyridin-2-amine]", "IC50": 41},
      {"smiles": "Cc1cc(Nc2cc(C(F)(F)F)ccn2)nc(-c2cn(-c3ccc(C(=O)O)cc3)nn2)c1", "note": "[Example 7.1, 4-(4-(4-Methyl-6-((4-(trifluoromethyl)pyridin-2-yl)amino)pyridin-2-yl)-1H-1,2,3-triazol-1-yl)benzoic acid]", "IC50": 11.1},
      {"smiles": "Cc1cc(Nc2nccc(C(F)F)n2)cc(-c2cn(CC3=CCC(=O)N=C3)nn2)c1", "note": "[Example 7.16, 5-((4-(3-((4-(difluoromethyl)pyrimidin-2-yl)amino)-5-methylphenyl)-1H-1,2,3-triazol-1-yl)methyl)pyridin-2(3H)-one]", "IC50": 2.3},
      {"smiles": "Cc1cc(Nc2ncc(F)c(C(F)F)n2)cc(-c2cn(CC3CNC(=O)O3)nn2)c1", "note": "(centres unmarked) [Example 7.36, 5-{[4-(3-{[4-(difluoromethyl)-5-fluoropyrimidin-2-yl]amino}-5-methylphenyl)-1H-1,2,3-triazol-1-yl]methyl}-1,3-oxazolidin-2-one]", "IC50": 16.2},
      {"smiles": "COC(=O)C1(n2cc(-c3cc(C)cc(Nc4cc(C(F)(F)F)ccn4)n3)nn2)CC1", "note": "[Example 8.1, Methyl 1-[4-(4-methyl-6-{[4-(trifluoromethyl)pyridin-2-yl]amino}pyridin-2-yl)-1H-1,2,3-triazol-1-yl]cyclopropanecarboxylate]", "IC50": 14.9},
      {"smiles": "CCOC(=O)C1(n2cc(-c3cc(C)cc(Nc4cc(C(F)(F)F)ccn4)n3)nn2)CCC1", "note": "[Example 8.2, ethyl 1-[4-(4-methyl-6-{[4-(trifluoromethyl)-pyridin-2-yl]amino}-pyridin-2-yl)-1H-1,2,3-triazol-1-yl]cyclobutane-carboxylate]", "IC50": 71.8},
      {"smiles": "Cc1cc(Nc2cc(C(F)(F)F)ccn2)nc(-c2cn(C3C=CCCCC3)nn2)c1", "note": "(centres unmarked) [Example 9.2, 6-(1-cyclohept-2-en-1-yl-1H-1,2,3-triazol-4-yl)-4-methyl-N-[4-(trifluoromethyl)-pyridin-2-yl]pyridin-2-amine]", "IC50": 54},
      {"smiles": "COC(=O)C1CCC(n2cc(-c3cc(C)cc(Nc4cc(C(F)(F)F)ccn4)n3)nn2)CC1(C)C", "note": "(centres unmarked) [Example 9.3, methyl 2,2-dimethyl-4-[4-(4-methyl-6-{[4-(trifluoromethyl)pyridin-2-yl]amino}pyridin-2-yl)-1H-1,2,3-triazol-1-yl]cyclohexane-carboxylate]", "IC50": 313},
      {"smiles": "Cc1cc(Nc2nccc(C(F)(F)F)n2)cc(-c2cn(C3CCC(C(=O)OC(C)(C)C)CC3)nn2)c1", "note": "(centres unmarked) [Example 9.4, tert-butyl 4-[4-(3-methyl-5-{[4-(trifluoromethyl)-pyrimidin-2-yl]amino}-phenyl)-1H-1,2,3-triazol-1-yl]cyclohexane-carboxylate]", "IC50": 7220},
      {"smiles": "Cc1cc(Nc2cc(C(F)(F)F)ccn2)nc(-c2cn([C@H](C)c3ccc(C(=O)O)cc3)nn2)c1", "note": "[Example 9.5, 4-{(1R)-1-[4-(4-methyl-6-{[4-(trifluoromethyl)-pyridin-2-yl]amino}pyridin-2-yl)-1H-1,2,3-triazol-1-yl]ethyl}benzoic acid]", "IC50": 8.1},
      {"smiles": "Cc1cc(Nc2cc(C(F)(F)F)ccn2)nc(-c2cn(CC3=CCCCC3)nn2)c1", "note": "[Example 9.6, 6-[1-(cyclohex-1-en-1-ylmethyl)-1H-1,2,3-triazol-4-yl]-4-methyl-N-[4-(trifluoromethyl)pyridin-2-yl]pyridin-2-amine]", "IC50": 78.8},
      {"smiles": "Cc1cc(Nc2cc(C(F)(F)F)ccn2)nc(-c2cn([C@@H](C)c3ccc(C(=O)O)cc3)nn2)c1", "note": "[Example 9.7, 4-{(1S)-1-[4-(4-methyl-6-{[4-(trifluoromethyl)pyridin-2-yl]amino}pyridin-2-yl)-1H-1,2,3-triazol-1-yl]ethyl}benzoic acid]", "IC50": 3.3},
      {"smiles": "Cc1cc(Nc2cc(C(F)(F)F)ccn2)nc(-c2cn(CC(O)C(O)c3ccccc3)nn2)c1", "note": "(centres unmarked) [Example 10.1, 3-(4-(4-Methyl-6-((4-(trifluoromethyl)pyridin-2-yl)amino)pyridin-2-yl)-1H-1,2,3-triazol-1-yl)-1-phenylpropane-1,2-diol]", "IC50": 8.8},
      {"smiles": "CCC(O)C(O)Cn1cc(-c2cc(C)cc(Nc3cc(C(F)(F)F)ccn3)n2)nn1", "note": "(centres unmarked) [Example 10.7, 1,4,5-trideoxy-1-[4-(4-methyl-6-{[4-(trifluoromethyl)pyridin-2-yl]amino}pyridin-2-yl)-1H-1,2,3-triazol-1-yl]pentitol]", "IC50": 30.4},
      {"smiles": "Cc1cc(Nc2cc(C(F)(F)F)ccn2)nc(-c2cn(CC(O)C(O)COc3ccccc3Cl)nn2)c1", "note": "(centres unmarked) [Example 10.8, 1-(2-chlorophenoxy)-4-[4-(4-methyl-6-{[4-(trifluoromethyl)pyridin-2-yl]amino}pyridin-2-yl)-1H-1,2,3-triazol-1-yl]butane-2,3-diol]", "IC50": 63.3},
      {"smiles": "CCOC(=O)C(O)C(O)Cn1cc(-c2cc(C)cc(Nc3cc(C(F)(F)F)ccn3)n2)nn1", "note": "(centres unmarked) [Example 10.9, ethyl 2,3-dihydroxy-4-[4-(4-methyl-6-{[4-(trifluoromethyl)pyridin-2-yl]amino}pyridin-2-yl)-1H-1,2,3-triazol-1-yl]butanoate]", "IC50": 33.1},
      {"smiles": "Cc1cc(Nc2cc(C(F)(F)F)ccn2)nc(-c2cn(CC3(O)CCCCC3O)nn2)c1", "note": "(centres unmarked) [Example 10.10, 1-{[4-(4-methyl-6-{[4-(trifluoromethyl)pyridin-2-yl]amino}pyridin-2-yl)-1H-1,2,3-triazol-1-yl]methyl}cyclohexane-1,2-diol]", "IC50": 19.6},
      {"smiles": "Cc1cc(Nc2cc(C(F)(F)F)ccn2)nc(-c2cn(C3CCCC(O)C3O)nn2)c1", "note": "(centres unmarked) [Example 10.11, 3-[4-(4-methyl-6-{[4-(trifluoromethyl)pyridin-2-yl]amino}pyridin-2-yl)-1H-1,2,3-triazol-1-yl]cyclohexane-1,2-diol]", "IC50": 3.3},
      {"smiles": "Cc1cc(Nc2cc(C(F)(F)F)ccn2)nc(-c2cn(CC(O)C(C)(C)O)nn2)c1", "note": "(centres unmarked) [Example 10.12, 3-methyl-1-[4-(4-methyl-6-{[4-(trifluoromethyl)pyridin-2-yl]amino}pyridin-2-yl)-1H-1,2,3-triazol-1-yl]butane-2,3-diol]", "IC50": 23.3},
      {"smiles": "Cc1cc(Nc2cc(C(F)(F)F)ccn2)nc(-c2cn(CC(O)C(C)O)nn2)c1", "note": "(centres unmarked) [Example 10.13, 1-[4-(4-methyl-6-{[4-(trifluoromethyl)pyridin-2-yl]amino}pyridin-2-yl)-1H-1,2,3-triazol-1-yl]butane-2,3-diol]", "IC50": 18.8},
      {"smiles": "Cc1cc(Nc2cc(C(F)(F)F)ccn2)nc(-c2cn(CC(C)(O)CO)nn2)c1", "note": "(centres unmarked) [Example 10.14, 2-methyl-3-[4-(4-methyl-6-{[4-(trifluoromethyl)pyridin-2-yl]amino}pyridin-2-yl)-1H-1,2,3-triazol-1-yl]propane-1,2-diol]", "IC50": 9.1},
      {"smiles": "Cc1cc(Nc2cc(C(F)(F)F)ccn2)nc(-c2cn(CC(C)(O)CO)nn2)c1", "note": "(centres unmarked) [Example 10.15, 2-methyl-3-[4-(4-methyl-6-{[4-(trifluoromethyl)pyridin-2-yl]amino}pyridin-2-yl)-1H-1,2,3-triazol-1-yl]propane-1,2-diol]", "IC50": 7.2},
      {"smiles": "Cc1cc(Nc2cc(C(F)(F)F)ccn2)nc(-c2cn(CC(C)(O)CO)nn2)c1", "note": "(centres unmarked) [Example 10.16, 2-methyl-3-[4-(4-methyl-6-{[4-(trifluoromethyl)pyridin-2-yl]amino}pyridin-2-yl)-1H-1,2,3-triazol-1-yl]propane-1,2-diol]", "IC50": 6.1},
      {"smiles": "Cc1cc(Nc2nccc(C(F)(F)F)n2)cc(-n2cc(C3(O)CCNC(=O)CC3)nn2)c1", "note": "(centres unmarked) [Example 11.4, 5-hydroxy-5-[1-(3-methyl-5-{[4-(trifluoromethyl)pyrimidin-2-yl]amino}phenyl)-1H-1,2,3-triazol-4-yl]azepan-2-one]", "IC50": 161},
      {"smiles": "Cc1cc(Nc2cc(C(F)(F)F)ccn2)nc(-c2cn(C[C@H](O)CC(N)=O)nn2)c1", "note": "[Example 12.1]", "IC50": 14.8}
    ]}
  ]
}
